Measured values: US10351534B2, “Use of 3-carboxy-N-ethyl-N,N-dimethylpropan-1-aminium salts in the treatment of cardiovascular disease” (JSC GRINDEKS, priority 2011, dated 2019)
Marks after values point to notes of the source that are not given here.

Tests used:
[1] = test system: isolated rat heart; assay: Isolated rat heart infarction study (after p.o. treatment); format: in vivo; conditions: for Infarct size, % of control: 20 mg/kg p.o. daily, isolated Wistar rat heart, 60 min occlusion, 150-min reperfusion, mean±s.e.m. of 9-10 animals; for decrease of infarct size: 20 mg/kg p.o., isolated rat heart infarction model, versus control
Experimental: Fifty male, 10 weeks old Wistar rats weighing 200-250 g were housed under standard conditions (21-23° C., 12 h light-dark cycle) with unlimited access to food (R3 diet, Lactamin AB, Sweden) and water.
Rats were adapted to local conditions for two weeks before the start of treatment. Meldonium dihydrate at a dose of 20 mg/kg, gamma-butyrobetaine at a dose of 20 mg/kg and 3-carboxy-N-ethyl-N,N-dimethylpropan-1-aminium salts at dose of 20 mg/kg were administered p.o. daily for 8 weeks. Control rats received water.
The isolated rat heart experiment was performed essentially as described earlier (Liepinsh et al., J. Cardiovasc. Pharmacol. 2006; 48(6):314-9). Twenty-four hours after the last drug administration hearts were excised and retrogradely perfused via the aorta at a constant pressure with oxygenated Krebs-Henseleit buffer at 37° C. The heart rate, left ventricle end-diastolic pressure and left ventricle developed pressure were continuously recorded. Coronary flow was measured using an ultrasound flow detector (HSE) and the PowerLab 8/30 system from ADInstruments. The hearts were perfused for 20 min to stabilize the hemodynamic functions and then occlusion was performed for 60 min by constricting threads through a plastic tube. Successful occlusion was confirmed by a coronary flow decrease of about 40 percent. Reperfusion was achieved by releasing the threads. At the end of the 150-min reperfusion period, the risk zone was delineated with 0.1% methylene blue. The hearts were then sectioned transversely from the apex to the base in five slices 2 mm in thickness and incubated in 1% triphenyltetrazolium chloride in phosphate buffer (pH 7.4, 37° C.) for 10 min to stain viable tissue red and necrotic tissue white. Computerized planemetric analysis of Sony A900 photographs was performed using Image-Pro Plus 6.3 software to determine the area at risk and area of necrosis expressed as a % of the left ventricle. The obtained values were then used to calculate the infarct size (IS) as a % of risk area according to the formula: Infarct Size=Area of Necrosis/Area at Risk×100%.
The anti-infarction effect of examined substances was investigated in an isolated rat heart infarction model. During occlusion of left coronary artery, the coronary flow in all experimental groups was decreased for 40% (from 11 ml/min to 7 ml/min). Moreover, the drop of developed left ventricular pressure for 50% was observed. […] In reperfusion stage, coronary flow, developed left ventricular pressure, ±dp/dt values were recovered till about 80% of control level. There were no significant differences between control and treatment groups.

[2] = s.c.; cited from earlier work

| Molecule | Infarct size, % of control [1] | decrease of infarct size [1] [%] | LD50 [2] [mg/kg] |
| --- | --- | --- | --- |
| C[N+](C)(C)NCCC(=O)[O-] [Meldonium dihydrate, 3-(2,2,2-Trimethylhydrazinium) propionate dihydrate, reference compound] | 117.9 ± 7.9 % of control |  |  |
| CC[N+](C)(C)CCCC(=O)O.O=C([O-])/C=C/C(=O)O [3-carboxy-N-ethyl-N,N-dimethylpropan-1-aminium (2E)-3-carboxyacrylate] | 46.5 ± 7.0*^,#,$ % of control | 53.5 |  |
| C[N+](C)(C)CCCC(=O)[O-] [Gamma-butyrobetaine, γ-Butyrobetaine, reference compound] | 87.6 ± 11.4 % of control | 12.4 | > 7000 |
| CC[N+](C)(C)CCCC(=O)O [3-carboxy-N-ethyl-N,N-dimethylpropan-1-aminium dihydrogen phosphate] | 56.1 ± 4.4*^,#,$ % of control | 43.9 |  |
| CC[N+](C)(C)CCCC(=O)O.O=C([O-])c1cc(=O)[nH]c(=O)[nH]1 [3-carboxy-N-ethyl-N,N-dimethylpropan-1-aminium 2,6-dioxo-1,2,3,6-tetrahydropyrimidine-4-carboxylate] | 60.6 ± 6.7*^,#,$ % of control | 39.4 |  |
| 3-carboxy-N-ethyl-N,N-dimethylpropan-1-aminium 2-(acetyloxy)benzoate | 61.6 ± 6.7*^,#,$ % of control | 38.4 |  |
| CC[N+](C)(C)CCCC(=O)O.O=C([O-])CCC(=O)O [3-carboxy-N-ethyl-N,N-dimethylpropan-1-aminium 3-carboxypropanoate] | 62.9 ± 4.7*^,#,$ % of control | 37.1 |  |
